A value given as a limit tells only on which side of the number the result lay.

What all share (assay type): biochemical
One assay has as its target c-Src tyrosine kinase (Homo sapiens (Human), UniProt P12931). Put plainly: in vitro c-Src tyrosine kinase inhibition (32P-ATP, poly(D4Y)n substrate). The settings on record: 1 uM compound; read-out: % inhibition against c-Src.
For the next assay, the target named is Hck tyrosine kinase (Homo sapiens (Human), UniProt P08631). Put plainly: in vitro Hck tyrosine kinase inhibition. The settings on record: 1 uM compound; read-out: % inhibition against Hck.
Sequence of Hck tyrosine kinase (P08631 whole entry): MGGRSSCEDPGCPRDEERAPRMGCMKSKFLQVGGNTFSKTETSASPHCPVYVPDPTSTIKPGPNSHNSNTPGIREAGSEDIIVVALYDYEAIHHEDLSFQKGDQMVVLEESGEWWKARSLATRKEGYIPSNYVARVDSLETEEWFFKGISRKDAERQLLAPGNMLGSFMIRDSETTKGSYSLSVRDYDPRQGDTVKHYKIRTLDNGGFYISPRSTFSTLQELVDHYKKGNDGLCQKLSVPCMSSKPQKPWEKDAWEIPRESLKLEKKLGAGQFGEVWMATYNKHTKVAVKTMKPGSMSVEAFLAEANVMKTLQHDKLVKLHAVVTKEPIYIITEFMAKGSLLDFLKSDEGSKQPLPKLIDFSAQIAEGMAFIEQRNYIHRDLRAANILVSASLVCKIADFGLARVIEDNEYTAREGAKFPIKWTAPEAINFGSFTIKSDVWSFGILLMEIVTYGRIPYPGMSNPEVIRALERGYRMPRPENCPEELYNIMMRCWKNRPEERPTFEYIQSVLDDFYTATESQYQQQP
For the next assay, the target named is Fgr tyrosine kinase (Homo sapiens (Human), UniProt P09769). Put plainly: in vitro Fgr tyrosine kinase inhibition. The settings on record: 1 uM compound; read-out: % inhibition against Fgr.
Sequence of Fgr tyrosine kinase (P09769 whole entry): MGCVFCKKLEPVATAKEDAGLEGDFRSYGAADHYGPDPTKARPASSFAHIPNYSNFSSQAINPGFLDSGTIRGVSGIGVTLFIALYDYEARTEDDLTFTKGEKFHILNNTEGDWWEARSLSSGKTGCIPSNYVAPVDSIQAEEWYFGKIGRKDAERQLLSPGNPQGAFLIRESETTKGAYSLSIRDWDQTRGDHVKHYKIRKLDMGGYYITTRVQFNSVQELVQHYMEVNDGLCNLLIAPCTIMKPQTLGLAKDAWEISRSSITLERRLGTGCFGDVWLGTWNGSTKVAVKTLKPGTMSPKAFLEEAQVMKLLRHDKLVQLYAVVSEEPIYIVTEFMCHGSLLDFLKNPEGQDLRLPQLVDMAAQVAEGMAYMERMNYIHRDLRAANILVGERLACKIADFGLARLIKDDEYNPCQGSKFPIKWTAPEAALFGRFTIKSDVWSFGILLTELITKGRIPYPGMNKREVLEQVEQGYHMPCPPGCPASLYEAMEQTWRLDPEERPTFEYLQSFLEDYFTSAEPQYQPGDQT
A further assay addresses Lyn tyrosine kinase (Homo sapiens (Human), UniProt P07948). The experiment in a line: in vitro Lyn tyrosine kinase inhibition. To be noted: 1 uM compound; read-out: % inhibition against Lyn.
Another assay deals with DDR1 tyrosine kinase (Homo sapiens (Human), UniProt Q08345). Put plainly: in vitro DDR1 tyrosine kinase inhibition (GST-fused kinase domain). The settings on record: 1 uM compound; read-out: % inhibition against DDR1.
Sequence of DDR1 tyrosine kinase (Q08345 610-905): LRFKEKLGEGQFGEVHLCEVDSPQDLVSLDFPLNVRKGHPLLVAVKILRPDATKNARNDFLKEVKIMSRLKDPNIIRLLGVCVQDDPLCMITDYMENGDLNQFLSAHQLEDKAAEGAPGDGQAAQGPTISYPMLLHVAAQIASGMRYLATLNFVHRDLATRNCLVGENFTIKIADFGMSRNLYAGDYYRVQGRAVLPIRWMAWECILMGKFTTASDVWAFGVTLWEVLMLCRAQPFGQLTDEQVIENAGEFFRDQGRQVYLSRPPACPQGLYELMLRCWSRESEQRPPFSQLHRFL
For a further assay, the target named is DDR2 tyrosine kinase (Homo sapiens (Human), UniProt Q16832). The experiment in a line: in vitro DDR2 tyrosine kinase inhibition (GST-fused kinase domain). To be noted: 1 uM compound; read-out: % inhibition against DDR2.
Sequence of DDR2 tyrosine kinase (Q16832 563-849): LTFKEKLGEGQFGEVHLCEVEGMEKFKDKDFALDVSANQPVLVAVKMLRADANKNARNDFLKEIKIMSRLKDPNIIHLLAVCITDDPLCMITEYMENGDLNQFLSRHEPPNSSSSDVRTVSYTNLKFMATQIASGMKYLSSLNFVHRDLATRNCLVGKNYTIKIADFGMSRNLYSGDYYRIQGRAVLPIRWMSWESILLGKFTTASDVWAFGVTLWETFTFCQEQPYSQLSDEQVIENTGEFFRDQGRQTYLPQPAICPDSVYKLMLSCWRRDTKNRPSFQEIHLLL

Sequence of c-Src tyrosine kinase (P12931 whole entry, looked up): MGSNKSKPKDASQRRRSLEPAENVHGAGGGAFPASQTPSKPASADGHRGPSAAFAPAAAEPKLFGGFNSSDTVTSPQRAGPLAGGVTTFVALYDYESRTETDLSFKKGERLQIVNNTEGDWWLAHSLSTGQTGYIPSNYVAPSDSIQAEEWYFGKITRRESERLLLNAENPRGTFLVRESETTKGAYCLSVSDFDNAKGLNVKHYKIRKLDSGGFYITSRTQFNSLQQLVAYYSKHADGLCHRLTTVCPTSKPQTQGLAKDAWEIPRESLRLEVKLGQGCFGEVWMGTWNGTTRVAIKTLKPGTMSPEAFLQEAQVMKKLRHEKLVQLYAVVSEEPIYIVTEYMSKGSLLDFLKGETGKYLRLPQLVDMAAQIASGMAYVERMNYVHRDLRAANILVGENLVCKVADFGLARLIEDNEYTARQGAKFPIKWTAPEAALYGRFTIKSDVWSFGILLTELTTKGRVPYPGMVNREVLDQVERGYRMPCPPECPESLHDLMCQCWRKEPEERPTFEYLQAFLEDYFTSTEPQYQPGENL
Sequence of Lyn tyrosine kinase (P07948 whole entry, the tested form may be a part): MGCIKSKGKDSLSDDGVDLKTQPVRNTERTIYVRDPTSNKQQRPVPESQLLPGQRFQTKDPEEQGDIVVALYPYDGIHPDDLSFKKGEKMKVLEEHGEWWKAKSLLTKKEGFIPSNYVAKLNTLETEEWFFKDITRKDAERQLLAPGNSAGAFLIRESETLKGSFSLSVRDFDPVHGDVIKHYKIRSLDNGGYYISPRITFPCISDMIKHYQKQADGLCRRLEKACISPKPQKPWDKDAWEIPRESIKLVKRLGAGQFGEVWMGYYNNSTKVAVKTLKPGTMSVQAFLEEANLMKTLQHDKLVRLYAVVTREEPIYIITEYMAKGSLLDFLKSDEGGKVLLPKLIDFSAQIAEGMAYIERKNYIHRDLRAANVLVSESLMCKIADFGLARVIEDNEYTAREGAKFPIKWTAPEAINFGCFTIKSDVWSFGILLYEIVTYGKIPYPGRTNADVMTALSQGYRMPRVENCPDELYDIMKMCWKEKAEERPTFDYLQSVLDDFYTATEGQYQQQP

Regarding `COc1cccc(Nc2ncnc3cc(-c4ccco4)sc23)c1` [LCB 03-0023, (6-Furan-2-yl-thieno[3,2-d]pyrimidin-4-yl)-(3-methoxyphenyl)-amine], the inhibition at 1 µM is above 40% at c-Src tyrosine kinase; above 40% on Hck tyrosine kinase; above 40% at Fgr tyrosine kinase; above 40% at Lyn tyrosine kinase; above 60% at DDR1 tyrosine kinase; above 60% at DDR2 tyrosine kinase.

`COc1cccc(Nc2ncnc3cc(-c4ccoc4)sc23)c1` [LCB 03-0024, (6-Furan-3-yl-thieno[3,2-d]pyrimidin-4-yl)-(3-methoxyphenyl)-amine]: the inhibition at 1 µM is above 30% on c-Src tyrosine kinase; above 30% at Hck tyrosine kinase; above 30% on Fgr tyrosine kinase; above 30% at Lyn tyrosine kinase; above 70% on DDR1 tyrosine kinase; above 70% at DDR2 tyrosine kinase.

Consider `COc1cccc(Nc2ncnc3cc(-c4ccc(OCCN5CCCC5)cc4)sc23)c1` [LCB 03-0026, N-(3-methoxyphenyl)-6-(4-(2-(pyrrolidin-1-yl)ethoxy)phenyl)thieno[3,2-d]pyrimidin-4-amine], for which the inhibition at 1 µM was above 60% on c-Src tyrosine kinase; above 60% at Hck tyrosine kinase; above 60% on Fgr tyrosine kinase; above 40% on Lyn tyrosine kinase; above 20% at DDR1 tyrosine kinase; above 20% on DDR2 tyrosine kinase.

Turning to `COc1cccc(Nc2ncnc3cc(-c4cccs4)sc23)c1` [LCB 03-0027, N-(3-methoxyphenyl)-6-(thiophene-2-yl)thieno[3,2-d]pyrimidin-4-amine], the inhibition at 1 µM is above 40% on c-Src tyrosine kinase; above 40% on Hck tyrosine kinase; above 40% on Fgr tyrosine kinase; above 40% at Lyn tyrosine kinase; above 70% on DDR1 tyrosine kinase; above 70% at DDR2 tyrosine kinase.

For `COc1cccc(Nc2ncnc3cc(-c4ccsc4)sc23)c1` [LCB 03-0028, (3-Methoxyphenyl)-(6-thiophene-3-yl-thieno[3,2-d]pyrimidin-4-yl)-amine], the inhibition at 1 µM on c-Src tyrosine kinase is above 30%; at Hck tyrosine kinase, above 30%; on Fgr tyrosine kinase it was above 30%; at Lyn tyrosine kinase it was above 30%; on DDR1 tyrosine kinase it was above 50%; on DDR2 tyrosine kinase it was above 50%.

`COc1cccc(Nc2ncnc3cc(-c4ccc(OCCN5CCNCC5)cc4)sc23)c1` [LCB 03-0029, N-(3-methoxyphenyl)-6-(4-(2-(piperazin-1-yl)ethoxy)phenyl)thieno[3,2-d]pyrimidin-4-amine]: the inhibition at 1 µM at c-Src tyrosine kinase is above 60%; at Hck tyrosine kinase, above 60%; at Fgr tyrosine kinase, above 60%; at Lyn tyrosine kinase, above 60%; on DDR1 tyrosine kinase, above 20%; at DDR2 tyrosine kinase, above 20%.

Take `Oc1cccc(Nc2ncnc3cc(-c4ccsc4)sc23)c1` [LCB 03-0031, 3-(6-Thiophene-3-yl-thieno[3,2-d]pyrimidin-4-ylamino)-phenol]: the inhibition at 1 µM is above 40% at c-Src tyrosine kinase; above 40% at Hck tyrosine kinase; above 40% on Fgr tyrosine kinase; above 30% at Lyn tyrosine kinase; above 70% at DDR1 tyrosine kinase; above 70% at DDR2 tyrosine kinase.

As for `Oc1cccc(Nc2ncnc3cc(-c4ccc(CCN5CCCCC5)cc4)sc23)c1` [LCB 03-0044], the inhibition at 1 µM is above 30% on c-Src tyrosine kinase; above 30% at Hck tyrosine kinase; above 30% on Fgr tyrosine kinase; above 30% on Lyn tyrosine kinase; above 80% on DDR1 tyrosine kinase; above 80% at DDR2 tyrosine kinase.

Consider `CN1CCN(CCc2ccc(-c3cc4ncnc(Nc5cccc(O)c5)c4s3)cc2)CC1` [LCB 03-0045], for which the inhibition at 1 µM on c-Src tyrosine kinase was above 30%; at Hck tyrosine kinase it was above 20%; at Fgr tyrosine kinase it was above 20%; on Lyn tyrosine kinase it was above 30%; on DDR1 tyrosine kinase, above 80%; on DDR2 tyrosine kinase, above 80%.

Turning to `Oc1cccc(Nc2ncnc3cc(-c4ccc(CCN5CCOCC5)cc4)sc23)c1` [LCB 03-0046, 3-(6-(4-(2-morpholinoethyl)phenyl)thieno[3,2-d]pyrimidin-4-ylamino)phenol], the inhibition at 1 µM is above 30% on c-Src tyrosine kinase; above 30% on Hck tyrosine kinase; above 30% on Fgr tyrosine kinase; above 30% at Lyn tyrosine kinase; above 80% at DDR1 tyrosine kinase; above 80% on DDR2 tyrosine kinase.

As to `CCN(CC)C(=O)Cc1ccc(-c2cc3ncnc(Nc4cccc(O)c4)c3s2)cc1` [LCB 03-0050, N,N-diethyl-2-(4-(4-(3-hydroxyphenylamino)thieno[3,2-d]pyrimidin-6-yl)phenyl)acetamide], the inhibition at 1 µM on c-Src tyrosine kinase was above 40%; on Hck tyrosine kinase, above 40%; on Fgr tyrosine kinase, above 40%; on Lyn tyrosine kinase, above 40%; at DDR1 tyrosine kinase it was above 80%; at DDR2 tyrosine kinase it was above 80%.

On to `CN1CCN(C(=O)c2ccc(-c3cc4ncnc(Nc5cccc(O)c5)c4s3)cc2)CC1` [LCB 03-0052, (4-(4-(3-hydroxyphenylamino)thieno[3,2-d]pyrimidin-6-yl)phenyl)(4-methylpiperazin-1-yl)methanone], for which the inhibition at 1 µM at c-Src tyrosine kinase is above 60%; at Hck tyrosine kinase it was above 60%; on Fgr tyrosine kinase it was above 50%; at Lyn tyrosine kinase, above 60%; on DDR1 tyrosine kinase, above 80%; at DDR2 tyrosine kinase, above 80%.

Turning to `CN1CCN(C(=O)c2cccc(-c3cc4ncnc(Nc5cccc(O)c5)c4s3)c2)CC1` [LCB 03-0055, (3-(4-(3-hydroxyphenylamino)thieno[3,2-d]pyrimidin-6-yl)phenyl)(4-methylpiperazin-1-yl)methanone], the inhibition at 1 µM is above 50% at c-Src tyrosine kinase; above 50% on Hck tyrosine kinase; above 50% at Fgr tyrosine kinase; above 50% at Lyn tyrosine kinase; above 80% at DDR1 tyrosine kinase; above 80% at DDR2 tyrosine kinase.

In the case of `COC(=O)C1CCCN1Cc1ccc(-c2cc3ncnc(Nc4cccc(O)c4)c3s2)cc1` (stereo not drawn) [LCB 03-0056, methyl 1-(4-(4-(3-hydroxyphenylamino)thieno[3,2-d]pyrimidin-6-yl)benzyl)pyrrolidine-2-carboxylate], the inhibition at 1 µM is above 50% on c-Src tyrosine kinase; above 50% at Hck tyrosine kinase; above 50% on Fgr tyrosine kinase; above 50% at Lyn tyrosine kinase; above 80% on DDR1 tyrosine kinase; above 80% on DDR2 tyrosine kinase.

Regarding `CC(CO)NC(=O)c1ccc(-c2cc3ncnc(Nc4cccc(O)c4)c3s2)cc1` (stereo not drawn) [LCB 03-0074, 4-(4-(3-hydroxyphenylamino)thieno[3,2-d]pyrimidin-6-yl)-N-(1-hydroxypropan-2-yl)benzamide], the inhibition at 1 µM on c-Src tyrosine kinase is above 30%; at Hck tyrosine kinase, above 30%; on Fgr tyrosine kinase it was above 30%; at Lyn tyrosine kinase it was above 30%; on DDR1 tyrosine kinase, above 80%; at DDR2 tyrosine kinase it was above 80%.

`CC(NC(=O)c1ccc(-c2cc3ncnc(Nc4cccc(O)c4)c3s2)cc1)C(=O)O` (stereo not drawn) [LCB 03-0075, 2-(4-(4-(3-hydroxyphenylamino)thieno[3,2-d]pyrimidin-6-yl)benzamido)propanoic acid]: the inhibition at 1 µM at c-Src tyrosine kinase was above 30%; on Hck tyrosine kinase it was above 30%; on Fgr tyrosine kinase it was above 30%; at Lyn tyrosine kinase, above 30%; at DDR1 tyrosine kinase, above 80%; on DDR2 tyrosine kinase, above 80%.

For `CN1CCN(c2nc3ncnc(Nc4cccc(O)c4)c3s2)CC1` [LCB 03-0100, 3-(2-(4-methylpiperazin-1-yl)thiazolo[4,5-d]pyrimidin-7-ylamino)phenol], the inhibition at 1 µM is above 30% on c-Src tyrosine kinase; above 30% on Hck tyrosine kinase; above 30% on Fgr tyrosine kinase; above 30% at Lyn tyrosine kinase; above 70% at DDR1 tyrosine kinase; above 70% at DDR2 tyrosine kinase.

On to `Oc1cccc(Nc2ncnc3cc(-c4cc(CN5CCCCC5)cs4)sc23)c1` [LCB 03-0103, 3-(6-(4-(piperidin-1-ylmethyl)thiophene-2-yl)thieno[3,2-d]pyrimidin-4-ylamino)phenol], for which the inhibition at 1 µM on c-Src tyrosine kinase was above 50%; on Hck tyrosine kinase, above 50%; at Fgr tyrosine kinase it was above 50%; at Lyn tyrosine kinase, above 50%; on DDR1 tyrosine kinase, above 70%; at DDR2 tyrosine kinase, above 70%.

Consider `Oc1cccc(Nc2ncnc3cc(-c4cc(CN5CCOCC5)cs4)sc23)c1` [LCB 03-0104, 3-(6-(4-(morpholinomethyl)thiophene-2-yl)thieno[3,2-d]pyrimidin-4-ylamino)phenol], for which the inhibition at 1 µM is above 50% at c-Src tyrosine kinase; above 50% at Hck tyrosine kinase; above 50% on Fgr tyrosine kinase; above 50% on Lyn tyrosine kinase; above 80% on DDR1 tyrosine kinase; above 80% at DDR2 tyrosine kinase.

Consider `Oc1cccc(Nc2ncnc3cc(-c4cc(CN5CCNCC5)cs4)sc23)c1` [LCB 03-0105, 3-(6-(4-(piperazin-1-ylmethyl)thiophene-2-yl)thieno[3,2-d]pyrimidin-4-ylamino)phenol], for which the inhibition at 1 µM at c-Src tyrosine kinase is above 50%; at Hck tyrosine kinase, above 50%; on Fgr tyrosine kinase it was above 50%; at Lyn tyrosine kinase it was above 50%; at DDR1 tyrosine kinase it was above 70%; on DDR2 tyrosine kinase it was above 70%.

Broadly, the inhibition is the share of the control response that was lost under treatment.

The record behind these values is patent US9062066B2, “Anti-inflammatory compound having inhibitory activity against multiple tyrosine kinases and pharmaceutical composition containing same” (KOREA INSTITUTE OF SCIENCE AND TECHNOLOGY, priority 2010, dated 2015).
